We go through 31 compounds from patent US4857549A, “Antitumor compounds” (priority 1988, dated 1989).

For one data set, the system named is P388 leukemia. The settings on record: for ILS (maximum increase in lifespan): ip P388 leukemia mice, ip days 1-5, slash-separated figures are separate experiments.
The nature of the next data set: in vivo. The note with it: mouse, ip.
Data set [1] deals with M5076 reticulum cell sarcoma. The experiment in a line: ip M5076 reticulum cell sarcoma assay in mice. The note with it: for MTD (maximally tolerated dose) / ILS max (maximum increase in lifespan): Table C, ip qD × 10; for MTD (maximally tolerated dose): B6D2F1 female mice; for ILS max (maximum increase in lifespan): ip M5076 sarcoma mice, slash = separate experiments, compound 2: seven experiments; for activity in the ip M5076 reticulum cell sarcoma assay: in words, based on Tables C and D. The procedure:
Another chemosensitive tumor model is intraperitoneally (ip) implanted M5076 reticulum cell sarcoma in mice. In this system B6D2F1 female mice are inoculated with 0.5 ml of a 10 percent weight:volume (w:v) brei of M5076 prepared from pooled subcutaneous (sc) tumors excised at about 21 days from c57B1/6 donor mice. Drugs are administered ip. Daily treatment is begun 24 hours after implantation and is continued for ten days. The treatment regimen for M5076 is more prolonged than for P388 because of the slower growth rate and longer control survival time of the M5076 tumor.

Setting [2] is: Table B, B6D2F1 female mice, ip qD × 5.
Setting [3] is: Table B, compound 2: 35 experiments.

Several values for one entry are separate records, joined by “and”; a condition that tells them apart may be missing. Equal entries are not always repeated. Where two headings read alike, the source gives them in different places.

Regarding `[2H]c1c([2H])c([2H])c([PH](CC[PH]([Au][Cl])(c2c([2H])c([2H])c([2H])c([2H])c2[2H])c2c([2H])c([2H])c([2H])c([2H])c2[2H])([Au][Cl])c2c([2H])c([2H])c([2H])c([2H])c2[2H])c([2H])c1[2H]` [Compound 31, μ-[1,2-Bis[di(phenyl-d5)phosphino]ethane]bis-[chlorogold(I)]], the “MTD (maximally tolerated dose)” value with P388 leukemia (setting [2]) was determined as 6 mg/kg. Further, the “ILS (maximum increase in lifespan)” value in the data set on P388 leukemia (setting [3]) is 40% and 65%. On to `CSc1ccc([PH](CC[PH]([Au][Cl])(c2ccc(SC)cc2)c2ccc(SC)cc2)([Au][Cl])c2ccc(SC)cc2)cc1` [Compound 30, μ-[1,2-Bis[Bis(4-Methylthiophenyl)Phosphino]ethane]-Bis[chlorogold(I)]], for which the “MTD (maximally tolerated dose)” value in the data set with P388 leukemia (setting [2]) is on record as 8 mg/kg. For the same compound, in the data set on P388 leukemia (setting [3]), the “ILS (maximum increase in lifespan)” value was 37% and 65%. For the compound `Fc1cccc([PH](CC[PH]([Au][Cl])(c2cccc(F)c2)c2cccc(F)c2)([Au][Cl])c2cccc(F)c2)c1` [Compound 26, μ-[1,2-Bis[Bis(3-Fluorophenyl)Phosphino]Ethane]Bis [Chlorogold (I)]], the “MTD (maximally tolerated dose)” value with P388 leukemia (setting [2]) is on record as 8 mg/kg. For the same compound, the “ILS (maximum increase in lifespan)” value in the data set on P388 leukemia (setting [3]) was 60% and 55%. On to `Fc1ccc([PH](CC[PH]([Au][Cl])(c2ccc(F)cc2)c2ccc(F)cc2)([Au][Cl])c2ccc(F)cc2)cc1` [Compound 25, μ-[1,2-Bis[Bis(4-Fluorophenyl)Phosphino]Ethane]Bis-[Chlorogold (I)]], for which the “MTD (maximally tolerated dose)” value in the data set on P388 leukemia (setting [2]) was 8 mg/kg. Also, the “ILS (maximum increase in lifespan)” value in the data set on P388 leukemia (setting [3]) was 80% and 75%.

Regarding `CCOC(=O)C(N)C[S][Au][PH](CC[PH]([Au][S]CC(N)C(=O)OCC)(c1ccccc1)c1ccccc1)(c1ccccc1)c1ccccc1` (centres unmarked) [Compound 20], the “MTD (maximally tolerated dose)” value in the data set with P388 leukemia (setting [2]) stood at 6 mg/kg. Further, the “ILS (maximum increase in lifespan)” value with P388 leukemia (setting [3]) is 50% and 56%. Consider `Fc1c(F)c(F)c([PH](CC[PH]([Au][Cl])(c2c(F)c(F)c(F)c(F)c2F)c2c(F)c(F)c(F)c(F)c2F)([Au][Cl])c2c(F)c(F)c(F)c(F)c2F)c(F)c1F` [Compound 27, μ-[1,2-Bis[bis(2,3,4,5,6-pentafluorophenyl)phosphine]ethane]-bis[chlorogold(I)]], for which the “MTD (maximally tolerated dose)” value in the data set on P388 leukemia (setting [2]) came to 16 mg/kg. In the data set with P388 leukemia (setting [3]), the “ILS (maximum increase in lifespan)” value was 30% and 25%. Regarding `C[C@H](C[PH]([Au][Cl])(c1ccccc1)c1ccccc1)[PH]([Au][Cl])(c1ccccc1)c1ccccc1` [Compound 10, μ-[(R)-(+)-1,2Bis(Diphenylphosphino)Propane]Bis[Chlorogold(I)]], the “MTD (maximally tolerated dose)” value in the data set with P388 leukemia (setting [2]) stood at 6 mg/kg. The “ILS (maximum increase in lifespan)” value in the data set on P388 leukemia (setting [3]) is 50% and 25%. With `CCP(CC)CCP(CC)CC` [Compound 49], the MTD in the data set “in vivo” is 64 mg/kg. Still for that read-out and setting: under `Fc1cccc(P(CCP(c2cccc(F)c2)c2cccc(F)c2)c2cccc(F)c2)c1` [Compound 46, 1,2-Ethanediyl-bis[bis(3-fluorophenyl)phosphine]] stands 32 mg/kg. For `FC(F)(F)c1ccc([PH](CC[PH]([Au][Cl])(c2ccc(C(F)(F)F)cc2)c2ccc(C(F)(F)F)cc2)([Au][Cl])c2ccc(C(F)(F)F)cc2)cc1` [Compound 29], the “MTD (maximally tolerated dose)” value with P388 leukemia (setting [2]) is 8 mg/kg. For the same compound, the “ILS (maximum increase in lifespan)” value with P388 leukemia (setting [3]) is 37% and 44%. For `O=[N+]([O-])[O][Ag][PH](CC[PH]([Ag][O][N+](=O)[O-])(c1ccccc1)c1ccccc1)(c1ccccc1)c1ccccc1` [Compound 13, μ-[1,2-Bis(Diphenylphosphino)Ethane]Bis[Nitratosilver(I)]], in the data set on P388 leukemia (setting [2]), the “MTD (maximally tolerated dose)” value is on record as 6 mg/kg. Besides, the “ILS (maximum increase in lifespan)” value in the data set on P388 leukemia (setting [3]) was 45% and 30%. In the case of `CC(C[PH]([Au][Cl])(c1ccccc1)c1ccccc1)[PH]([Au][Cl])(c1ccccc1)c1ccccc1` (centres unmarked) [Compound 9, μ-[1,2-Bis(Diphenylphosphino)Propane]Bis[Chlorogold(I)]], in the data set with P388 leukemia (setting [2]), the “MTD (maximally tolerated dose)” value is 6 mg/kg. Moreover, the “ILS (maximum increase in lifespan)” value in the data set with P388 leukemia (setting [3]) is 45% and 60% and 35%. Further, in data set [1], the “MTD (maximally tolerated dose)” value was found to be 5 mg/kg, the “ILS max (maximum increase in lifespan)” value worked out at 98% and the “activity in the ip M5076 reticulum cell sarcoma assay” value (“activity” below) was “good activity”.

Regarding `CCOC(=S)[S][Au][PH](CC(O)[PH]([Au][S]C(=S)OCC)(c1ccccc1)c1ccccc1)(c1ccccc1)c1ccccc1` (centres unmarked) [Compound 19, μ-[1,2-Bis(Diphenylphosphino)Ethanol]Bis[O-Ethyldithiocarbonatogold(I)]], the “MTD (maximally tolerated dose)” value with P388 leukemia (setting [2]) was 6 mg/kg. Turning to `N#C[S][Au][PH](CC[PH]([Au][S]C#N)(c1ccccc1)c1ccccc1)(c1ccccc1)c1ccccc1` [Compound 16], the “MTD (maximally tolerated dose)” value in the data set with P388 leukemia (setting [2]) is recorded as 6 mg/kg. In addition, the “ILS (maximum increase in lifespan)” value with P388 leukemia (setting [3]) is 36% and 62% and 45%. In addition, in data set [1], the “MTD (maximally tolerated dose)” value is 5 mg/kg, the “ILS max (maximum increase in lifespan)” value is given as 52% and the “activity” value is recorded as “good activity”. Consider `CCP(CC)CCP(CC)CC` [Compound 50], for which the “MTD (maximally tolerated dose)” value with P388 leukemia (Table BI, B6D2F1 female mice, ip qD × 5) turned out to be 128 mg/kg. The “ILS (maximum increase in lifespan)” value in the data set on P388 leukemia (Table BI, compound 33: 41 experiments) stood at 55%. For the compound `[Cl][Cu][PH](CC[PH]([Cu][Cl])(c1ccccc1)c1ccccc1)(c1ccccc1)c1ccccc1` [Compound 14, μ-[1,2-Bis(Diphenylphosphino)Ethane]Bis[Chlorocopper(I)]], in the data set on P388 leukemia (setting [2]), the “MTD (maximally tolerated dose)” value turned out to be 4 mg/kg. Besides, in the data set on P388 leukemia (setting [3]), the “ILS (maximum increase in lifespan)” value was 65% and 79%. Regarding `COc1ccc([PH](CC[PH]([Au][Cl])(c2ccc(OC)cc2)c2ccc(OC)cc2)([Au][Cl])c2ccc(OC)cc2)cc1` [Compound 24, μ-[1,2-Bis[Bis(4-methoxyphenyl)phosphino]ethanel]bis[chlorogold(I)]], the “MTD (maximally tolerated dose)” value with P388 leukemia (setting [2]) is reported as 8 mg/kg.

`C1CCC(P(CCP(C2CCCCC2)C2CCCCC2)C2CCCCC2)CC1` [Compound 44, 1,2-bis(dicyclohexylphosphino)ethane]: the MTD in “in vivo” is 32 mg/kg. Regarding `[Cl][Au][PH](CC[PH](Cc1ccccc1)(Cc1ccccc1)[Au][Cl])(Cc1ccccc1)Cc1ccccc1` [Compound 23, μ-[1,2-Bis(Dibenzylphosphino)Ethane]Bis[Chlorogold (I)]], the “MTD (maximally tolerated dose)” value (in the data set with P388 leukemia (setting [2]); in data set [1]) was 4 mg/kg in each case. In the data set with P388 leukemia (setting [3]), the “ILS (maximum increase in lifespan)” value is 45% and 30%. Also, the “ILS max (maximum increase in lifespan)” value in data set [1] is on record as 40%.

In the case of `CSc1ccc(P(CCP(c2ccc(SC)cc2)c2ccc(SC)cc2)c2ccc(SC)cc2)cc1` [Compound 48, 1,2-Ethanediyl-Bis[Bis(4-methylthiophenyl)phosphine]], in the data set “in vivo”, the MTD was found to be 32 mg/kg. As for `FC(F)(F)[S][Au][PH](CC[PH]([Au][S]C(F)(F)F)(c1ccccc1)c1ccccc1)(c1ccccc1)c1ccccc1` [Compound 18, μ-[1,2-Bis(diphenylphosphino)ethane]Bis[trifluoromethyl-thiogold(I)]], the “ILS max (maximum increase in lifespan)” value in data set [1] came out at 70%.

With `[Cl][Au][PH](C=C[PH]([Au][Cl])(c1ccccc1)c1ccccc1)(c1ccccc1)c1ccccc1` [Compound 8, μ-[Trans-1,2-Bis(Diphenylphosphino)Ethylene]Bis[Chlorogold(I)]], the “MTD (maximally tolerated dose)” value in the data set on P388 leukemia (setting [2]) came to 24 mg/kg. For the same compound, in the data set with P388 leukemia (setting [3]), the “ILS (maximum increase in lifespan)” value is 33% and 36%.

Consider `CC(C(C)[PH]([Au][Cl])(c1ccccc1)c1ccccc1)[PH]([Au][Cl])(c1ccccc1)c1ccccc1` [Compound 11, μ-[(-) (2S,3S)-2,3-Bis(Diphenylphosphino)Butane]Bis[Chlorogold(I)]], for which, in the data set with P388 leukemia (mouse, in vivo, ip), the “MTD (maximally tolerated dose)” value amounted to 6 mg/kg. `CSc1ccccc1P(CCP(c1ccccc1SC)c1ccccc1SC)c1ccccc1SC` [Compound 47, 1,2-ethanediyl-bis[bis(2-methylthiophenyl)phosphine]] showed an MTD in “in vivo” of 64 mg/kg. On the same count and under the same terms, under `Fc1ccc(P(CCP(c2ccc(F)cc2)c2ccc(F)cc2)c2ccc(F)cc2)cc1` [Compound 45, 1,2-ethanediyl-bis[bis(4-fluorophenyl)phosphine]] stands 8 mg/kg.

As to “μ-[1,2-Bis[Bis(2-Methylthiophenyl)Phosphino]Ethane]Bis[Chlorogold(I)] [Compound 28]”, the “MTD (maximally tolerated dose)” value with P388 leukemia (setting [2]) is reported as 8 mg/kg.

Turning to `CC(C(C)P(c1ccccc1)c1ccccc1)P(c1ccccc1)c1ccccc1` (single isomer, unassigned; (-)) [Compound 42], the MTD in “in vivo” is 48 mg/kg. Same read-out and setting: under `c1ccc(P(CCCCP(c2ccccc2)c2ccccc2)c2ccccc2)cc1` [Compound 38, Bis(1,4-diphenylphosphino)butane] stands 28 mg/kg; under `c1ccc(P(CCCCCP(c2ccccc2)c2ccccc2)c2ccccc2)cc1` [Compound 39, Bis (1,5-diphenylphosphino)pentane], 8 mg/kg. For `CC(=O)[O][Au][PH](CC[PH]([Au][O]C(C)=O)(c1ccccc1)c1ccccc1)(c1ccccc1)c1ccccc1` [Compound 17, μ-[1,2-Bis(Diphenylphosphino)Ethane]Bis[Acetatogold(I)]], in the data set on P388 leukemia (setting [2]), the “MTD (maximally tolerated dose)” value was found to be 4 mg/kg. In addition, the “ILS (maximum increase in lifespan)” value with P388 leukemia (setting [3]) was 73% and 64%. For the same compound, in data set [1], the “MTD (maximally tolerated dose)” value is given as 4 mg/kg; the “ILS max (maximum increase in lifespan)” value is 54% and 67%; the “activity” value was “good activity”. As for `CC[PH](CC)(CC[PH]([Au][Cl])(c1ccccc1)c1ccccc1)[Au][Cl]` [Compound 21, μ-[1-Diethylphosphino-2-Diphenylphosphino-Ethane]bis-[Chlorogold(I)]], the “MTD (maximally tolerated dose)” value in the data set on P388 leukemia (setting [2]) is given as 16 mg/kg. The “ILS (maximum increase in lifespan)” value in the data set with P388 leukemia (setting [3]) was 30%.
